Among the data in ChEMBL document CHEMBL1122073, “Structure-activity relationships for 2-substituted imidazoles as alpha 2-adrenoceptor antagonists” (J Med Chem, 1982) are logD, pA2 and Selectivity ratio values, retold here.

Structures can show the parent of a compound that is named as a salt. Where only a bound is given, the exact number is not on record here.

The logD is the decadic logarithm of the distribution of all forms, ionised or not, between an organic phase and buffer at a given pH. Usually pA2 stands for the negative logarithm of the molar antagonist concentration that doubles the agonist concentration needed for the same response.

Data set [1] in a line: Tested for the 1-Octanol distribution coefficient determined by HPLC method (pH 7.4). The class given is physicochemical. Particulars: 1-octanol/aqueous phase.
In data set [2] the target is T1, Adrenergic receptor alpha-1 (Rattus norvegicus, UniProt P15823+P23944+P43140).
T1 sequence (P15823 whole entry): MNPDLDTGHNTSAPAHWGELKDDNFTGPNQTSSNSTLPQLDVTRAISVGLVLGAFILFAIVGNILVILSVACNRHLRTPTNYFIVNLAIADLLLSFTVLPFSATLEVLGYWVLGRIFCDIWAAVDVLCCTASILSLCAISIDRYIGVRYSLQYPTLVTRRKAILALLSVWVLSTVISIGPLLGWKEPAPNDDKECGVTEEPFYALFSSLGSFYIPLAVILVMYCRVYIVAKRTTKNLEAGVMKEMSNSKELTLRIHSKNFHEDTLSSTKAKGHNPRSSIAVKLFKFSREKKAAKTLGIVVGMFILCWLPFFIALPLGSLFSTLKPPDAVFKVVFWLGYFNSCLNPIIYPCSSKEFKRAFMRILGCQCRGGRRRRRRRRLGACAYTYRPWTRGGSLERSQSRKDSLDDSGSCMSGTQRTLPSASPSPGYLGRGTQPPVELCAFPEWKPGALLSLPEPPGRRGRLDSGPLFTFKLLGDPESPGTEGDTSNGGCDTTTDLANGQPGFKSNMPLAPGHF
T1 sequence (P23944 whole entry): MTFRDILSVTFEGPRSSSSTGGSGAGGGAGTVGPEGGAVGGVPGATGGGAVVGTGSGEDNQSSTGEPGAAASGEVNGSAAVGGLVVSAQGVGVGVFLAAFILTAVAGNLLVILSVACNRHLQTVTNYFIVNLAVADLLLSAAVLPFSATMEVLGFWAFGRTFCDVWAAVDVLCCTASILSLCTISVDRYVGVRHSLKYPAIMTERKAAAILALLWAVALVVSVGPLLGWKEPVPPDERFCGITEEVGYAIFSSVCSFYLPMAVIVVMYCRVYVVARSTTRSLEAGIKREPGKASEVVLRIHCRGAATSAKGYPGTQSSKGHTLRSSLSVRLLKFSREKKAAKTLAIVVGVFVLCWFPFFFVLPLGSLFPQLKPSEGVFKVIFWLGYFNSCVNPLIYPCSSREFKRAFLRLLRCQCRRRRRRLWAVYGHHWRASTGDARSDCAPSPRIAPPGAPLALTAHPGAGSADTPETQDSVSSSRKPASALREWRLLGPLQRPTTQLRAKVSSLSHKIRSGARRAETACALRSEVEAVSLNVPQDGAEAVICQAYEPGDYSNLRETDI
T1 sequence (P43140 whole entry): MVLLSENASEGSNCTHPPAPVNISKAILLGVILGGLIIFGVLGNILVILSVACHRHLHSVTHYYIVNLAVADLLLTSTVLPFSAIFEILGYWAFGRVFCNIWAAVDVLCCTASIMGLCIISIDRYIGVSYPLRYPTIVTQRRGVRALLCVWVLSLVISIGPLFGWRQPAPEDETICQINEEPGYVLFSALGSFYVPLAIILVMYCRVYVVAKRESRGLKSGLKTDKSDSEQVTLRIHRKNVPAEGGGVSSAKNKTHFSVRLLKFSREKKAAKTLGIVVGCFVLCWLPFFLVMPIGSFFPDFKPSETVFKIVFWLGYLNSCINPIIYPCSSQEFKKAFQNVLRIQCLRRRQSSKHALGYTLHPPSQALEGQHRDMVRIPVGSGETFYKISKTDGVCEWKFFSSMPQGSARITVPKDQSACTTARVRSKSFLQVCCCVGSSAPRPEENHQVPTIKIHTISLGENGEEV
Kind of data set: Antagonistic activity against Alpha-1 adrenergic receptor in the epididymal portion of the rat vas deferens. The class given is functional, tissue-based.

For data set [3], the target named is T2, Adrenergic receptor alpha-2 (Rattus norvegicus, UniProt P22086+P19328+P22909).
T2 sequence (P22086 whole entry): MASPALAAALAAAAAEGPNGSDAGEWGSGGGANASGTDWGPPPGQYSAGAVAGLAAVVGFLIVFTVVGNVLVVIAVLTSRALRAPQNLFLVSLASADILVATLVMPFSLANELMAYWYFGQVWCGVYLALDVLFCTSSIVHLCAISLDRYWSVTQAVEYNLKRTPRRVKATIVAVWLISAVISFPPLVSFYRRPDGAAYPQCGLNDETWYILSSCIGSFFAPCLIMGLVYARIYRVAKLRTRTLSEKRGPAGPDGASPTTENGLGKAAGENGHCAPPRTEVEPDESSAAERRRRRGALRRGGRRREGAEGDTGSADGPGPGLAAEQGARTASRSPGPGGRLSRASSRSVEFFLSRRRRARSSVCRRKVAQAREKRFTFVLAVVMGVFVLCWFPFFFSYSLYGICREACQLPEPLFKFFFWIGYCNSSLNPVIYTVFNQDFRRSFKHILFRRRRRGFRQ
T2 sequence (P19328 whole entry): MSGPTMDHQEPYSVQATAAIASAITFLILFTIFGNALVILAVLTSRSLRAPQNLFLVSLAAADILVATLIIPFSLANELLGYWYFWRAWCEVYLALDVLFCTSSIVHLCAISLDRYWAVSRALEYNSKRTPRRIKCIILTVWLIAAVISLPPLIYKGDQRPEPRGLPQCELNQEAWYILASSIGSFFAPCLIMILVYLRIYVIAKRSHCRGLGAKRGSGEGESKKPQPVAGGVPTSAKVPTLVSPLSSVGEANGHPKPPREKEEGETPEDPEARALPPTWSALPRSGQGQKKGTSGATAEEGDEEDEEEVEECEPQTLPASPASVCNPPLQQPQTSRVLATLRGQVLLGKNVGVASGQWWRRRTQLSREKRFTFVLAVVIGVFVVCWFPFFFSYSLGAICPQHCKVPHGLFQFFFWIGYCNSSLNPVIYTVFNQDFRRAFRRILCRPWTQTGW
T2 sequence (P22909 whole entry): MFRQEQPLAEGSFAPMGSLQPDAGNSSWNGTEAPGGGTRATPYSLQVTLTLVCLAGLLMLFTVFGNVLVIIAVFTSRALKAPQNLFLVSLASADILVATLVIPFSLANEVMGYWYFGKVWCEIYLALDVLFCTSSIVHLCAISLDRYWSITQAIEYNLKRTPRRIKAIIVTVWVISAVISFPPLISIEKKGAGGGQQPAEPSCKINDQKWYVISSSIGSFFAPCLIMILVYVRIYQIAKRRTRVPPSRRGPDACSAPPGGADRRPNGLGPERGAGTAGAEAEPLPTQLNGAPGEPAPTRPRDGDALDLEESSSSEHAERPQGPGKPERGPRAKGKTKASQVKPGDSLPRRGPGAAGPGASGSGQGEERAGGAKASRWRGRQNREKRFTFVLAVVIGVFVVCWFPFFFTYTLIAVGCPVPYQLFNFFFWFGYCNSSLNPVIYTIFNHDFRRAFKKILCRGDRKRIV
The data set can be described thus: Antagonistic activity against Alpha-2 adrenergic receptor in the prostatic portion of the rat vas deferens. The class given is functional, tissue-based.

Data set [4] addresses Adrenergic receptor alpha (Rattus norvegicus) (UniProt P15823+P23944+P43140+P22086+P19328+P22909). Kind of data set: Selectivity ratio is the […] of alfa2 and alfa1 adrenoceptors. The class given is protein assay.
The target in data set [5] is T1, Adrenergic receptor alpha-1. The data set can be described thus: […] activity against Alpha-1 adrenergic receptor in the epididymal portion of the rat vas deferens. The class given is functional, tissue-based.

`c1ccc2c(c1)OCC(C1=NCCN1)O2` (stereo unspecified) [IDAZOXAN HYDROCHLORIDE] had a logD in data set [1] of 0.33.
As for `CCn1ccnc1CC1COc2ccccc2O1.Cl` (stereo unspecified) [IMILOXAN HYDROCHLORIDE], the pA2 in data set [2] was below 4; in data set [3], 6.71. In data set [1], this compound had a logD of 2.31.
On to `Cl.N=C(N)CC1COc2ccccc2O1` (stereo unspecified), for which the pA2 in data set [2] was below 5; in data set [3], 5.4. The Selectivity ratio in data set [4] was above 2.5.
In the case of `Cl.c1ccc2c(c1)OCC(CCc1ncc[nH]1)O2` (stereo unspecified), the pA2 in data set [2] turned out to be 4.2. The same compound displayed a logD in data set [1] of 1.99. For the same compound, in data set [4], the Selectivity ratio was 102.
Regarding `CCCn1ccnc1CC1COc2ccccc2O1` (stereo unspecified), the logD in data set [1] is 2.4.
For `Cl.Cn1ccnc1CC1COc2ccccc2O1` (stereo unspecified), in data set [2], the pA2 was found to be 4.33. The logD in data set [1] was 1.93. In addition, in data set [4], the Selectivity ratio turned out to be 74.1.
Take `CCN1CCN=C1CC1COc2ccccc2O1.Cl` (stereo unspecified): the figures for the pA2 in data set [2] and in data set [3] were 5 and 6.7, respectively. In data set [4], the Selectivity ratio stood at 50.1.
`c1ccc2c(c1)OCC(Cc1ncc[nH]1)O2` (stereo unspecified) yielded a logD in data set [1] of 1.92.
On to `COc1cccc(Cn2ccnc2CC2COc3ccccc3O2)c1.Cl` (stereo unspecified), for which the pA2 in data set [5] is listed as 5; in data set [3], 6.58. The Selectivity ratio in data set [4] turned out to be 38.
In data set [1], `c1ccc2c(c1)OCC(Cc1nc3ccccc3[nH]1)O2` (stereo unspecified) yielded a logD of 3.29.
For the compound `Cl.c1ccc2c(c1)OCC(CC1=NCCN1)O2` (stereo unspecified), the figures for the pA2 in data set [2] and in data set [3] were 5 and 7, respectively. Moreover, in data set [1], the logD stood at 0.28. Further, the Selectivity ratio in data set [4] is 100.
With `CC(C)n1ccnc1CC1COc2ccccc2O1` (stereo unspecified), the pA2 in data set [2] was determined as 4.3; in data set [3], 6.56. Moreover, the Selectivity ratio in data set [4] amounted to 182.
For `NCC1(c2ccccc2)OCCO1`, the figures for the pA2 in data set [2] and in data set [3] were below 5 and 5.5, respectively. For the same compound, the Selectivity ratio in data set [4] was above 3.2.
As to `Cl.c1ccc(-c2c[nH]c(CC3COc4ccccc4O3)n2)cc1` (stereo unspecified), the figures for the pA2 in data set [2] and in data set [3] were below 5 and 5.51, respectively. This compound also displayed a log distribution coefficient (logD) in data set [1] above 2.5. Moreover, in data set [4], the Selectivity ratio was above 3.2.
On to `Cl.c1ccc2c(c1)OCC(c1ncc[nH]1)O2` (stereo unspecified), for which the pA2 was below 4 in data set [2] and 5.6 in data set [3]. This compound displayed a logD in data set [1] of 1.76. In addition, the Selectivity ratio in data set [4] is above 39.8.
As to `c1ccc2c(c1)OCC(CN1CCCCC1)O2` (stereo unspecified) [PIPEROXAN], the pA2 in data set [3] was found to be 7.4.
`Clc1cccc(Cl)c1Cn1ccnc1CC1COc2ccccc2O1` (stereo unspecified): the pA2 in data set [2] is reported as below 5; in data set [3], 6. Further, the Selectivity ratio in data set [4] was above 10.
Take `CCCCn1ccnc1CC1COc2ccccc2O1.Cl` (stereo unspecified): the values for the pA2 in data set [2] and in data set [3] were below 4.5 and 6.84, respectively. Also, the Selectivity ratio in data set [4] was above 219.
Take `Cl.c1ccc(Cn2ccnc2CC2COc3ccccc3O2)cc1` (stereo unspecified): the pA2 in data set [5] came out at 5; in data set [3], 6.84. The logD in data set [1] is above 2.5. In addition, the Selectivity ratio in data set [4] is 69.2.
